Experiment [1] concerns Trypanosoma brucei Lister 427 strain, bloodstream form. Nature of the experiment: Assay for proliferation of kinetoplastid parasite Trypanosoma brucei (Cell Titer Glo, 48 hours). The experiment is classed as cell-based. The following applies: Trypanosoma brucei, T. brucei Lister 427 bloodstream form, inhibition of proliferation; read-out: T. brucei EC50. The gist of the method: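 Bloodstream-form T. brucei Lister 427 in HMI-9 medium was exposed to compound (DMSO vehicle) for 48 hours at 37° C, 5% CO2. Parasite growth was read as ATP by CellTiter-Glo luminescence, with EC50 calculated from percent inhibition.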
In general terms: Cellular ATP, detected with luciferase, serves as a proxy for viable cell number.

The subject of experiment [2] is Trypanosoma cruzi amastigotes (Tulahuen strain expressing Lac-Z) cultured in 3T3 fibroblast cells. Nature of the experiment: microbe, parasite or virus in culture. The experiment is classed as cell-based. To be noted: Trypanosoma cruzi, TULAHUEN, Fibroblast, T. cruzi amastigotes in 3T3 fibroblast cells, inhibition of proliferation; read-out: T cruzi EC50.
For experiment [3], the system named is L. donovani HU3 strain in mouse peritoneal macrophages. The experiment can be described thus: Assay for proliferation of Leishmania parasites in infected mouse peritoneal macrophages (SybrGreen staining, high-content imaging, 5 days). The experiment is classed as cell-based, Leishmania donovani. The following applies: Leishmania donovani, Peritoneal macrophage, L. donovani in mouse peritoneal macrophages, inhibition of proliferation; read-out: L. donovani Macrophage EC50.

Experiment [4] concerns Leishmania donovani axenic amastigote parasites. Nature of the experiment: Leishmania donovani axenic amastigote proliferation assay (Cell TiterGlo luminescence, 2 day incubation). Type of experiment: cell-based. The following applies: Leishmania donovani, axenic amastigotes, inhibition of proliferation; read-out: L. donovani amastigotes EC50.

pEC50: −log10 of the molar value.

The term pEC50 denotes −log10 of the EC50, conventionally taken in molar units. With `O=C(Nc1cnc2nc(-c3cc(NC(=O)N4CCCC4)ccc3F)cn2c1)c1ccccn1` [Compound 147], the pEC50 in experiment [1] is 7.72; in experiment [2] it was 7.19; in experiment [3] it was 7.17; in experiment [4], 7.13.

Take `Cc1csc(C(=O)Nc2cnc3nc(-c4cc(NC(=O)c5oc(C)nc5C)ccc4F)cn3c2)n1` [Compound 148]: the pEC50 in experiment [1] is 7.21; in experiment [2] it was 7.05; in experiment [3], 6.65; in experiment [4], 7.29.

As to `Cc1nc(C)c(C(=O)Nc2ccc(F)c(-c3cn4cc(NC(=O)C5CCCO5)cnc4n3)c2)o1` (stereo not shown) [Compound 149], the negative logarithm of the EC50 (pEC50) was 6.29 in experiment [1], 5.73 in experiment [2], 6.21 in experiment [3] and 6.62 in experiment [4].

Turning to `Cc1nc(C)c(C(=O)Nc2ccc(F)c(-c3cn4cc(NC(=O)c5oc(C)nc5C)cnc4n3)c2)o1` [Compound 150], the pEC50 is 6.30 in experiment [1], less than 4.70 in experiment [2], 4.36 in experiment [3] and 6.27 in experiment [4].

For the compound `Cc1nc(C)c(C(=O)Nc2ccc(F)c(-c3cn4cc(NC(=O)C5CN(C)CCO5)cnc4n3)c2)o1` (stereo not shown) [Compound 152], the pEC50 was 6.37 in experiment [1], 5.33 in experiment [2], 5.62 in experiment [3] and 5.76 in experiment [4].

As for `Cc1nc(C)c(C(=O)Nc2ccc(F)c(-c3cn4cc(NC(=O)C5(C#N)CC5)cnc4n3)c2)o1` [Compound 153], the pEC50 in experiment [1] is 6.87; in experiment [2], 5.47; in experiment [3] it was 6.05; in experiment [4] it was 6.46.

Take `Cc1nc(C)c(C(=O)Nc2ccc(F)c(-c3cn4cc(NC(=O)C5CCCOC5)cnc4n3)c2)o1` (stereo not shown) [Compound 154]: the pEC50 in experiment [1] is 5.83; in experiment [2], 5.21; in experiment [3], 5.60; in experiment [4], 6.00.

Take `Cc1nc(C)c(C(=O)Nc2ccc(F)c(-c3cn4cc(NC(=O)CC5CCCCO5)cnc4n3)c2)o1` (stereo not shown) [Compound 155]: the pEC50 in experiment [1] is 6.10; in experiment [2] it was 5.62; in experiment [3], 5.43; in experiment [4] it was 5.81.

In the case of `Cc1nc(C)c(C(=O)Nc2ccc(F)c(-c3cn4cc(NC(=O)C5CCC(=O)O5)cnc4n3)c2)o1` (stereo not shown) [Compound 156], the pEC50 is 4.97 in experiment [1], less than 4.70 in experiment [2], less than 4.30 in experiment [3] and 5.41 in experiment [4].

Consider `Cc1nc(C)c(C(=O)Nc2ccc(F)c(-c3cn4cc(NC(=O)[C@@H]5[C@@H]6CCC(O6)[C@@H]5N)cnc4n3)c2)o1` [Compound 157], for which the pEC50 is 4.50 in experiment [1], less than 4.70 in experiment [2], less than 4.30 in experiment [3] and less than 4.60 in experiment [4].

For the compound `Cc1nc(C)c(C(=O)Nc2ccc(F)c(-c3cn4cc(NC(=O)C5CCOCC5)cnc4n3)c2)o1` [Compound 158], the pEC50 in experiment [1] is 5.39; in experiment [2], less than 4.70; in experiment [3] it was less than 4.30; in experiment [4] it was 5.72.

With `Cc1nc(C)c(C(=O)Nc2ccc(F)c(-c3cn4cc(NC(=O)C5CCOC(C)(C)C5)cnc4n3)c2)o1` (stereo not shown) [Compound 159], the pEC50 was 5.83 in experiment [1], 5.00 in experiment [2], 4.99 in experiment [3] and 5.54 in experiment [4].

As to `Cc1nc(C)c(C(=O)Nc2ccc(F)c(-c3cn4cc(NC(=O)[C@H]5NCC[C@@H]5O)cnc4n3)c2)o1` [Compound 160], the pEC50 in experiment [1] is 4.54; in experiment [2], less than 4.70; in experiment [3], less than 4.30; in experiment [4], less than 4.60.

For the compound `Cc1nc(C)c(C(=O)Nc2ccc(F)c(-c3cn4cc(NC(=O)[C@@H]5CCCO5)cnc4n3)c2)o1` [Compound 161], the negative logarithm of the EC50 (pEC50) was 6.77 in experiment [1], 5.60 in experiment [2], 6.18 in experiment [3] and 6.69 in experiment [4].

Consider `Cc1nc(C(=O)Nc2cnc3nc(-c4cc(NC(=O)c5oc(C)nc5C)ccc4F)cn3c2)c(C)o1` [Compound 162], for which the pEC50 in experiment [1] was 7.28; in experiment [2] it was 6.90; in experiment [3] it was 6.27; in experiment [4], 7.19.

For `Cc1nc(C)c(C(=O)Nc2ccc(F)c(-c3cn4cc(NC(=O)[C@](C)(O)C(F)(F)F)cnc4n3)c2)o1` [Compound 163], the pEC50 in experiment [1] was 6.40; in experiment [2] it was 4.96; in experiment [3], 5.35; in experiment [4] it was 6.08.

For `Cc1nc(C)c(C(=O)Nc2ccc(F)c(-c3cn4cc(NC(=O)[C@H]5CCCO5)cnc4n3)c2)o1` [Compound 164], the pEC50 in experiment [1] is 6.71; in experiment [2] it was 5.70; in experiment [3], 6.04; in experiment [4] it was 6.55.

`Cc1nc(C)c(C(=O)Nc2ccc(F)c(-c3cn4cc(NC(=O)C5CCCCN5C)cnc4n3)c2)o1` (stereo not shown) [Compound 165]: the pEC50 in experiment [1] is 5.84; in experiment [2], 5.29; in experiment [3], less than 4.30; in experiment [4] it was less than 4.60.

For `COCCC(=O)Nc1cnc2nc(-c3cc(NC(=O)c4oc(C)nc4C)ccc3F)cn2c1` [Compound 166], the pEC50 in experiment [1] is 6.00; in experiment [2], less than 4.70; in experiment [3], less than 4.33; in experiment [4], 5.64.

As for `Cc1nc(C)c(C(=O)Nc2ccc(F)c(-c3cn4cc(NC(=O)c5c[nH]cn5)cnc4n3)c2)o1` [Compound 167], the negative-log EC50 (pEC50) is 6.04 in experiment [1], less than 4.70 in experiment [2], less than 4.30 in experiment [3] and 4.97 in experiment [4].

With `Cc1nc(C)c(C(=O)Nc2ccc(F)c(-c3cn4cc(NC(=O)[C@@H]5CCCC[C@@H]5N)cnc4n3)c2)o1` [Compound 168], the negative logarithm of the EC50 (pEC50) in experiment [1] is 5.36; in experiment [2], less than 4.74; in experiment [3], 4.61; in experiment [4], 4.69.

For the compound `COC1CCC(C(=O)Nc2cnc3nc(-c4cc(NC(=O)c5oc(C)nc5C)ccc4F)cn3c2)CC1` (stereo not shown) [Compound 169], the pEC50 is 6.28 in experiment [1], 5.41 in experiment [2], 5.62 in experiment [3] and 6.15 in experiment [4].

On to `Cc1nc(C)c(C(=O)Nc2ccc(F)c(-c3cn4cc(NC(=O)C5(C)CCCCO5)cnc4n3)c2)o1` (stereo not shown) [Compound 170], for which the pEC50 in experiment [1] is 6.29; in experiment [2], 5.94; in experiment [3], 6.05; in experiment [4] it was 6.37.

For `Cc1n[nH]c(C(=O)Nc2cnc3nc(-c4cc(NC(=O)c5oc(C)nc5C)ccc4F)cn3c2)n1` [Compound 171], the pEC50 in experiment [1] was 5.85; in experiment [2] it was less than 4.70; in experiment [3] it was less than 4.30; in experiment [4], 5.81.

Consider `Cc1nc(C)c(C(=O)Nc2ccc(F)c(-c3cn4cc(NC(=O)C5CN(C(=O)OC(C)(C)C)CCCO5)cnc4n3)c2)o1` (stereo not shown) [Compound 173], for which the negative logarithm of the EC50 (pEC50) in experiment [1] was 6.83; in experiment [2], 6.39; in experiment [3], 6.24; in experiment [4] it was 6.45.

As for `Cc1nc(C)c(C(=O)Nc2ccc(F)c(-c3cn4cc(NC(=O)c5ccc(OCCN6CCN(C)CC6)cc5)cnc4n3)c2)o1` [Compound 175], the pEC50 was 5.35 in experiment [1], less than 4.70 in experiment [2], 4.90 in experiment [3] and less than 4.60 in experiment [4].

Consider `Cc1nc(C)c(C(=O)Nc2ccc(F)c(-c3cn4cc(NC(=O)c5nc(NC(=O)OC(C)(C)C)cn5C)cnc4n3)c2)o1` [Compound 176], for which the pEC50 in experiment [1] was less than 4.30; in experiment [2] it was less than 4.70; in experiment [3], less than 4.30; in experiment [4] it was less than 4.60.

On to `COC(C)C(=O)Nc1cnc2nc(-c3cc(NC(=O)c4oc(C)nc4C)ccc3F)cn2c1` (stereo not shown) [Compound 177], for which the negative logarithm of the EC50 (pEC50) in experiment [1] is 6.79; in experiment [2], 5.46; in experiment [3], 6.04; in experiment [4], 6.51.

`Cc1nc(C)c(C(=O)Nc2ccc(F)c(-c3cn4cc(NC(=O)c5nc(N)cn5C)cnc4n3)c2)o1` [Compound 178]: the pEC50 in experiment [1] is 5.53; in experiment [2], less than 4.70; in experiment [3] it was less than 4.37; in experiment [4], 5.17.

As for `Cc1nc(C)c(C(=O)Nc2ccc(F)c(-c3cn4cc(NC(=O)C5CNCCO5)cnc4n3)c2)o1` (stereo not shown) [Compound 179], the pEC50 in experiment [1] is 5.16; in experiment [2], less than 4.70; in experiment [3] it was less than 4.34; in experiment [4] it was less than 4.60.

Turning to `Cc1nc(C)c(C(=O)Nc2ccc(F)c(-c3cn4cc(NC(=O)[C@@H]5[C@H](N)[C@@H]6C=C[C@H]5C6)cnc4n3)c2)o1` [Compound 180], the negative-log EC50 (pEC50) in experiment [1] was 5.36; in experiment [2], less than 4.70; in experiment [3], less than 4.30; in experiment [4], less than 4.60.

Consider `Cc1nc(C)c(C(=O)Nc2ccc(F)c(-c3cn4cc(NC(=O)[C@H]5[C@@H](N)[C@@H]6C=C[C@H]5C6)cnc4n3)c2)o1` [Compound 181], for which the pEC50 was 4.90 in experiment [1], less than 4.70 in experiment [2], 4.48 in experiment [3] and less than 4.60 in experiment [4].

In the case of `Cc1nc(C)c(C(=O)Nc2ccc(F)c(-c3cn4cc(NC(=O)C5CNCCCO5)cnc4n3)c2)o1` (stereo not shown) [Compound 182], the pEC50 in experiment [1] is 4.97; in experiment [2], less than 4.70; in experiment [3], less than 4.30; in experiment [4] it was less than 4.60.

For the compound `Cc1nc(C(=O)Nc2cnc3nc(-c4cc(NC(=O)c5oc(C)nc5C)ccc4F)cn3c2)no1` [Compound 183], the pEC50 in experiment [1] was 5.68; in experiment [2] it was less than 4.70; in experiment [3] it was 4.94; in experiment [4], 5.44.
